Experimental data taken from publication PMC10823468, “Design, Synthesis, and Evaluation of New 1H-Benzo[d]imidazole Based PqsR Inhibitors as Adjuvant Therapy for Pseudomonas aeruginosa Infections” (Journal of Medicinal Chemistry, 2024).

Experiments:
[1] = system: AQ production in P. aeruginosa laboratory strains and CF isolates; test: Alkyl quinolone (AQ: HHQ, PQS, HQNO) quantification by LC-MS/MS; assay type: cell-based, Pseudomonas aeruginosa
Excerpt: PqsR directly regulates the biosynthesis of diverse AQs, of which HHQ and PQS act as QS molecules, while others such as 2-heptyl- 4-hydroxyquinoline N-oxide (HQNO) are potent cytochrome bc1 inhibitors that contribute to the environmental competitiveness of this pathogen.[9],[28] Previous studies have shown that PQS is a multifunctional iron chelator acting via PqsR-dependent and PqsR-independent pathways, contributing directly to iron acquisition and microvesicle formation.[29] […] PqsR inhibition reduces production of AQ, which can be quantified to serve as a direct readout for pqs system inhibition.[9] To this end, 6f was incubated with various P. aeruginosa laboratory strains and CF isolates and its impact on AQ production determined quantitatively using LCMS/MS and compared with untreated samples.
For each test sample, 100 μL of sterile filtered supernatant was spiked with 10 μL of an internal standard solution (10 μM d4-PQS in MeOH) and diluted with water to a total volume of 500 μL. Samples were then extracted three times with an 0.5 mL aliquot of ethyl acetate, vortex mixing the aqueous/organic mix for 2 min, then removing the organic phase once the layers had successfully partitioned. For each sample, the combined organic extracts were dried under vacuum and redissolved in 100 μL of MeOH prior to analysis. For the LC-MS/MS analysis of supernatant extracts, the chromatography was achieved using a Shimadzu series 10AD VP LC system (Columbia, MD, USA). The LC column, maintained at 40 °C, was a Phenomenex Gemini C18 (3.0 μm, 100 mm × 3.0 mm) (Macclesfield, Cheshire, UK) with an appropriate guard column. Mobile phase A was 0.1% (v/v) formic acid in water containing 2 mM 2-picolinic acid, and mobile phase B 0.1% (v/v) formic acid in methanol. The flow rate throughout the chromatographic separation was 450 μL/min. After an injection of a 2 μL/sample, a binary gradient, beginning initially at 30% B, increased linearly to 99% B over 5 min. The composition remained at 99% B for 3 min, decreased to 30% B over 1 min, and stayed at this composition for 4 min, to allow for column equilibration. The MS system used for analyte detection was an Applied Biosystems Qtrap 4000 hybrid triple-quadrupole linear ion trap mass spectrometer (Foster City, CA, USA), equipped with an electrospray ionization (ESI) interface. Instrument control, data collection, and analysis were conducted using Analyst software (Foster City, CA, USA). […] Where chromatographic peaks for HHQ, HQNO, and PQS were detected, a peak area was determined, and analyte peak area/internal standard peak area calcdulated.

PAO1-L biofilms = test: Biofilm viability assay, method 1 (ciprofloxacin, LIVE/DEAD, CLSM); assay type: cell-based, Pseudomonas aeruginosa; settings: 6 and 24 h
Experimental: Biofilms are bacterial communities that are highly tolerant to antibiotics.[33] […] Therefore, pharmacological interference with the pqs machinery could sensitize PA biofilms to antibiotics.[34] To evaluate this effect, PAO1-L biofilms were grown for […] in the presence of 6f (method 1). Following treatment with the broad-spectrum antibiotic ciprofloxacin (Cip), the viability of biofilm bacteria was determined using LIVE/DEAD BacLight staining and confocal laser scanning microscopy (CLSM). The effect of 6f on biofilm viability as a single treatment or in combination with subinhibitory concentration of Cip was examined at two different time points (6 and 24 h after treatment) to establish whether this PqsR antagonist enhanced the activity of the antibiotic. […] It is noteworthy that the effect was greater at 6 h treatment compared with 24 h.
Figure 6 (A) Representative CLSM 3D Z-stack images of PAO1-L biofilms after 24 h growth with or without 6f and further treatment for 6 or 24 h with no treatment (control), 6f (10 μM), ciprofloxacin (Cip: 60 μg/mL), or a combination of 6f and Cip (10 μM and 60 μg/mL, respectively). Live bacteria are depicted in green (SYTO9 dye) and dead cells are shown in red color (propidium iodide stain). (B) Biofilm viability assay. Bar chart showing PAO1-L biofilm viability quantified after treatment with different conditions for 6 or 24 h. […]

[2] = parameters: method as in PMID 33073099; settings: rat microsomes; cited from earlier work
[3] = parameters: method as in PMID 33073099; settings: rats; intratracheal; coarse suspension; cited from earlier work

SMILES: CC(C)n1c(NCC(O)COc2ccc(CC#N)cc2)nc2ccc(Cl)cc21 (stereo not shown) [Compound 6f, 2-(4-(3-((6-Chloro-1-isopropyl-1H-benzo[d]imidazol-2-yl)amino)-2-hydroxypropoxy)phenyl) Acetonitrile]
- HHQ and PQS levels ([1]; 0.2 μM 6f, IPCD1331): no significant reduction
- HQNO concentrations ([1]; 0.2 μM 6f, IPCD1451 CF isolate): nonsignificant reduction
- AQ production ([1]; 0.2 μM 6f, LESB58 strain): moderate but significant reduction
- HHQ and PQS levels ([1]; 0.2 μM 6f, PAO1-L, PA14 and IPCD48 CF isolate, vs untreated): substantially reduced
- inhibition at 0.2 µM ([1]; Pseudomonas aeruginosa, read-out: HQNO inhibition): 20 to 60%
- biofilm viability, combination with ciprofloxacin (PAO1-L biofilms; 6f 10 μM + Cip 60 μg/mL): significant potentiation of antibiotic activity
- biofilm viability, single treatment (PAO1-L biofilms; 6f 10 μM alone): no significant effect
- half-life [2]: relatively short
- clearance from lung to plasma [3]: rapid clearance
- systemic clearance [3]: fast systemic clearance
